According to article PMC4774972, “Activity and Predicted Nephrotoxicity of Synthetic Antibiotics Based on Polymyxin B” (Journal of Medicinal Chemistry, 2016):
Converted amounts (≈) assume the structure as drawn. Numbered stars: 1 amine (or outer) side, 2 acyl side, 3 side chain; on linkers, the order of the positions; unused ones are H or OH. Bridge positions count the residues as written; N and C are the ends. Square brackets hold non-standard residues; d marks the D form. Peptide text beside a SMILES is read from it. * marks the point of attachment. Benzoyl(4-OPh) = O=C(c1ccc(Oc2ccccc2)cc1)*; Benzoyl(4-Ph) = O=C(c1ccc(-c2ccccc2)cc1)*; dGly(nOct) = CCCCCCCC[C@@H](N)C(=O)O; NH(2-ClPh) = Clc1ccccc1N*; dDab = NCC[C@@H](N)C(=O)O; hSer = N[C@@H](CCO)C(=O)O; Octanoyl = CCCCCCCC(=O)*; Dab = NCC[C@H](N)C(=O)O; CO = O=C([*:1])[*:2]

How the values were obtained:
HepG2 = details: CC50 HepG2 (µM)
K. pneumoniae ATCC 13883 = details: MIC K. pneumoniae ATCC 13883 (µg/mL)
[1] = test system: K. pneumoniae CI 138-16357-20362, PmxR; details: MIC K. pneumoniae CI 138-16357-20362, PmxR (µg/mL)
[2] = test system: P. aeruginosa PA9704, PmxR; details: MIC P. aeruginosa PA9704, PmxR (µg/mL)
[3] = test system: A. baumannii CI Ptyela 100734512:2, PmxR; details: MIC A. baumannii CI Ptyela 100734512:2, PmxR (µg/mL)
[4] = test system: S. aureus ATCC 25923, MSSA; details: MIC S. aureus ATCC 25923, MSSA (µg/mL)
[5] = test system: K. pneumoniae CI Koprana 100650661:1, PmxR; details: MIC K. pneumoniae CI Koprana 100650661:1, PmxR (µg/mL)
P. aeruginosa ATCC 27853 = details: MIC P. aeruginosa ATCC 27853 (µg/mL)
E. coli ATCC 25922 = details: MIC E. coli ATCC 25922 (µg/mL)
[6] = test system: primary human renal proximal tubule epithelial (hPT) cells; test: Nephrotoxicity assay, LDH release; format: cell-based; details: for release of LDH: at 100 μg/mL in the primary kidney cells; for LDH release CC50: primary human kidney cells
Excerpt: (§1) Primary human renal proximal tubule epithelial (hPT) cells were isolated and used for in vitro prediction of drug-induced nephrotoxicity[63],[64],[69] by measuring the release of metabolism enzymes, LDH and GGT, as previously described.[70]

[7] = test system: K. pneumoniae CI 138-16357-20362, PmxR; test: microbe, parasite or virus in culture; format: cell-based, Klebsiella pneumoniae
Protocol: (§2) Bacteria were either obtained from American Type Culture Collection (ATCC; Manassas, VA, USA) or independent academic clinical isolate collections, as listed in Table S2. Bacteria were cultured in nutrient broth (NB; Bacto Laboratories, catalog no. 234000) or Muller Hinton broth (MHB; Bacto Laboratories, catalog no. 211443) at 37 °C overnight with shaking (∼180 rpm). A sample of each culture was then diluted 50-fold in fresh MHB and incubated at 37 °C for 1.5–3 h with shaking (∼180 rpm). Compound stock solutions were prepared as 0.64 or 2.56 mg/mL in water. The compounds, at twice the final desired concentration, were serially diluted 2-fold across the wells of 96-well plates (Polystyrene, Corning, catalogue No. 3370). Mid log phase bacterial cultures (after 1.5–3 h incubation) were diluted to a final concentration of 5 × 10^5 colony forming units (CFU)/mL, and 50 μL was added to each well giving a final compound concentration range of 32 μg/mL to 0.015 μg/mL (128–0.06 μg/mL for colistin and polymyxin B against the polymyxin resistant clinical isolates). MICs were determined visually after 18 h of incubation at 37 °C, with the MIC defined as the lowest compound concentration at which no bacterial growth was visible.
(§3) Table S2. Bacterial strains used for Minimum Inhibitory Concentration (MIC) […]
(§4) Organism Strain Strain description Strain Source
(§5) Escherichia coli ATCC 25922 FDA strain Seattle 1946 ATCC
(§6) Klebsiella pneumoniae ATCC 13883 Control strain ATCC
(§7) Klebsiella pneumoniae ATCC 700603 Multi-drug resistant ATCC
(§8) Klebsiella pneumoniae BAA-2146 Metallo-beta-lactamase- ATCC
(§9) Acinetobacter baumannii ATCC 19606 Type strain ATCC
(§10) Pseudomonas aeruginosa ATCC 27853 Type strain ATCC
(§11) Pseudomonas aeruginosa FADDI-PA070 Clinical isolate, Nation and Li labs, polymyxin resistant Monash University
(§12) Clinical isolate, Wang Hengzhuang, Pseudomonas aeruginosa PA9704 polymyxin resistant University Hospital of […]
(§13) Ptyela Clinical isolate, Ilias Karaiskos and Acinetobacter baumannii Carbapenem & Helen Giamarellou
(§14) Clinical isolate, Medicine, Hygeia
(§15) Klebsiella pneumoniae Koprana Carbapenem, & General Hospital, […]
(§16) Clinical isolate, (Instituto Dante […]
(§17) polymyxin resistant Cardiologia, São […]

[8] = test system: K. pneumoniae CI Koprana 100650661:1, PmxR; test: microbe, parasite or virus in culture; format: cell-based, Klebsiella pneumoniae; details: carbapenem & polymyxin resistant clinical isolate; MHB, 5 × 10^5 CFU/mL, 18 h at 37 °C
Protocol: as §2, §3, §4, §5, §6, §7, §8, §9, §10, §11, §12, §13, §14, §15, §16, §17

[9] = test system: primary human renal proximal tubule epithelial (hPT) cells; test: Nephrotoxicity assay, GGT release; format: cell-based; details: for release of GGT: at 100 μg/mL in the primary kidney cells; for GGT release CC50: primary human kidney cells
Excerpt: as §1

[10] = test system: P. aeruginosa PA9704, PmxR; format: cell-based, Pseudomonas aeruginosa; details: polymyxin resistant clinical isolate; MHB, 5 × 10^5 CFU/mL, 18 h at 37 °C
Protocol: as §2, §3, §4, §5, §6, §7, §8, §9, §10, §11, §12, §13, §14, §15, §16, §17

HepG2 cells = test: Cytotoxicity assay (resazurin assay); format: cell-based, human; details: 4000 cells/well, 24 h incubation with compound, fluorescence 560/590
Protocol: Cytotoxicity to HEK293 and HepG2 cells was determined using the resazurin assay.[67],[68] […] Compounds were then added into each well. After 24 h incubation, 5 μM resazurin was added per well and incubated at 37 °C for 2 h. Fluorescence intensity was then read using a Polarstar Omega with excitation/emission 560/590. The data were then analyzed using GraphPad Prism 6 software. CC50 values were determined using GraphPad Prism 6 software (Inc. La Jolla, CA).

[11] = test system: S. aureus ATCC 25923, MSSA; test: microbe, parasite or virus in culture; format: cell-based, Staphylococcus aureus; details: MHB, 5 × 10^5 CFU/mL, read visually after 18 h at 37 °C
Protocol: as §2, §3, §4, §5, §6, §7, §8, §9, §10, §11, §12, §13, §14, §15, §16, §17

[12] = test system: P. aeruginosa FADDI-PA070, PmxR; details: MIC P. aeruginosa FADDI-PA070, PmxR (µg/mL)
[13] = test system: A. baumannii CI Ptyela 100734512:2, PmxR; test: microbe, parasite or virus in culture; format: cell-based, Acinetobacter baumannii; details: carbapenem & polymyxin resistant clinical isolate; MHB, 5 × 10^5 CFU/mL, 18 h at 37 °C
Protocol: as §2, §3, §4, §5, §6, §7, §8, §9, §10, §11, §12, §13, §14, §15, §16, §17

A. baumannii ATCC 19606 = details: MIC A. baumannii ATCC 19606 (µg/mL)
[14] = test system: K. pneumoniae ATCC 700603, MDR; details: MIC K. pneumoniae ATCC 700603, MDR(µg/mL)
[15] = carbapenem & polymyxin resistant clinical isolate, MHB, 5 × 10^5 CFU/mL, 18 h at 37 °C

Structure (SMILES) | CC50 (HepG2) [µM] | MIC (K. pneumoniae ATCC 13883) [µg/mL] | MIC [1] [µg/mL] | MIC [2] [µg/mL] | MIC [3] [µg/mL] | MIC [4] [µg/mL] | MIC [5] [µg/mL] | MIC (P. aeruginosa ATCC 27853) [µg/mL] | release of LDH [6] | LDH release CC50 [6] [µg/mL] | MIC K. pneumoniae CI 138-16357-20362, PmxR [7, 15] [µg/mL] | MIC K. pneumoniae CI Koprana 100650661:1, PmxR [8] [µg/mL] | release of GGT [9] | GGT release CC50 [9] [µg/mL] | MIC P. aeruginosa PA9704, PmxR [10] [µg/mL] | HepG2 - CC50 (HepG2 cells) [µM] | MIC S. aureus ATCC 25923, MSSA [11] [µg/mL] | MIC [12] [µg/mL] | MIC A. baumannii CI Ptyela 100734512:2, PmxR [13] [µg/mL] | other results
CCCCCCCC[C@H]1NC(=O)[C@H](CCN)NC(=O)[C@@H](NC(=O)[C@H](CCN)NC(=O)[C@@H](NC(=O)[C@H](CCN)NC(=O)CCCCCCC)[C@@H](C)O)CCNC(=O)[C@H]([C@@H](C)O)NC(=O)[C@H](CCN)NC(=O)[C@H](CCN)NC(=O)[C@H](CC(C)C)NC1=O (Octanoyl-[Dab]T[Dab][Dab][Dab][dGly(nOct)]L[Dab][Dab]T; lactam 4-C) | 254 | 2 (≈ 1.65 µM) | 16 (≈ 13.2 µM) | 8 (≈ 6.6 µM) | 16 (≈ 13.2 µM) | 16 (≈ 13.2 µM) | 16 (≈ 13.2 µM) | 2 (≈ 1.65 µM) | – | – | – | – | – | – | – | – | – | – | – | MIC (E. coli ATCC 25922): 2 µg/mL (≈ 1.65 µM)
CC(C)C[C@@H]1NC(=O)[C@@H](Cc2ccccc2)NC(=O)[C@H](CCN)NC(=O)[C@@H](NC(=O)[C@H](CCN)NC(=O)[C@@H](NC(=O)[C@H](CCN)NC(=O)c2ccc(-c3ccccc3)cc2)[C@@H](C)O)CCNC(=O)[C@H]([C@@H](C)O)NC(=O)[C@H](CCN)NC(=O)[C@H](CCN)NC1=O [Compound 10] ({Benzoyl(4-Ph)}-[Dab]T[Dab][Dab][Dab][dF]L[Dab][Dab]T; lactam 4-C) | 298 | – | > 32 | > 32 | – | > 32 | > 32 | – | almost no release | >128 | >32 | >32 | almost no release | >128 | – | – | – | – | – | –
CC(C)C[C@@H]1NC(=O)[C@@H](Cc2ccccc2)NC(=O)[C@H](CCN)NC(=O)[C@@H](NC(=O)[C@H](CCN)NC(=O)[C@@H](NC(=O)[C@H](CCN)NC(=O)Nc2ccccc2Cl)[C@@H](C)O)CCNC(=O)[C@H]([C@@H](C)O)NC(=O)[C@H](CCN)NC(=O)[C@H](CCN)NC1=O [Compound 13] ({NH(2-ClPh)-CO}-[Dab]T[Dab][Dab][Dab][dF]L[Dab][Dab]T; lactam 4-C) | > 300 | – | > 32 | > 32 | > 32 | > 32 | > 32 | – | – | – | >32 | >32 | – | – | >32 | >300 | >32 | > 32 | >32 | –
CC(C)C[C@@H]1NC(=O)[C@@H](Cc2ccccc2)NC(=O)[C@H](CCN)NC(=O)[C@@H](NC(=O)[C@H](CCN)NC(=O)[C@@H](NC(=O)[C@H](CCN)NC(=O)c2ccc(Oc3ccccc3)cc2)[C@@H](C)O)CCNC(=O)[C@H]([C@@H](C)O)NC(=O)[C@H](CCN)NC(=O)[C@H](CCN)NC1=O [Compound 14] ({Benzoyl(4-OPh)}-[Dab]T[Dab][Dab][Dab][dF]L[Dab][Dab]T; lactam 4-C) | 287 | – | > 32 | – | – | > 32 | > 32 | – | almost no release | >128 | – | >32 | almost no release | >128 | – | – | – | – | – | MIC K. pneumoniae CI 138-16357-20362, PmxR ([7]; CI 138-16357-20362, PmxR, 18 h): >32 µg/mL
CC(C)C[C@@H]1NC(=O)[C@@H](Cc2ccccc2)NC(=O)[C@H](CCN)NC(=O)[C@@H](NC(=O)[C@@H](CCN)NC(=O)[C@@H](NC(=O)[C@H](CCN)NC(=O)Nc2ccccc2Cl)[C@@H](C)O)CCNC(=O)[C@H]([C@@H](C)O)NC(=O)[C@H](CCN)NC(=O)[C@H](CCN)NC1=O [Compound 16] ({NH(2-ClPh)-CO}-[Dab]T[dDab][Dab][Dab][dF]L[Dab][Dab]T; lactam 4-C) | > 300 | – | > 32 | > 32 | > 32 | > 32 | > 32 | – | – | – | >32 | >32 | – | – | >32 | >300 | >32 | – | >32 | –
CCCCCCCC(=O)N[C@@H](CCN)C(=O)N[C@H](C(=O)N[C@@H](CCN)C(=O)N[C@H]1CCNC(=O)[C@H]([C@@H](C)O)NC(=O)[C@H](CCN)NC(=O)[C@H](CCN)NC(=O)[C@H](CC(C)C)NC(=O)[C@@H](Cc2ccccc2)NC(=O)[C@H](CCO)NC1=O)[C@@H](C)O [Compound 33] (Octanoyl-[Dab]T[Dab][Dab][hSer][dF]L[Dab][Dab]T; lactam 4-C) | > 300 | > 32 | > 32 | > 32 | > 32 | > 32 | > 32 | > 32 | – | – | >32 | >32 | – | – | – | – | – | > 32 | – | MIC (A. baumannii ATCC 19606): > 32 µg/mL; MIC [14]: > 32 µg/mL
